Source: US10259852B2, “Conjugate comprising P21 protein for the treatment of cancer” (ANASTASIS BIOTEC LIMITED, priority 2005, dated 2019)

Assays:
ASPC1 = assay: Cell translocation experiment; format: cell-based, human; details: incubated 10 and 60 min, various dilutions, 37° C.
Method: (§1) The production of the fusion protein allowed a cell translocation experiment to be performed, to test the ability of the antennapedia-containing fusion protein to translocate across biological membranes. Two cell lines were used in this experiment, ASPC1 and HeLa (ASPC1—human pancreatic adenocarcinoma, HeLa—human cervical adenocarcinoma). The protein was incubated for 10 and 60 min on cells in various dilutions at 37° C. Translocation of the fusion protein was evident in both cell lines, even after only ten minutes of incubation.

HeLa = assay: Cell translocation experiment; format: cell-based, human; details: incubated 10 and 60 min, various dilutions, 37° C.
Method: as §1

P21 protein: P21 tumour suppressor protein expressed alone, without translocation factor; human P21 is SEQ ID NO:1
Translocation across cells (ASPC1): did not appear to translocate | Translocation across cells (HeLa): did not appear to translocate
